Laboratory results reported in PubChem BioAssay AID1419 (Emory University Molecular Libraries Screening Center, 2008).
Calls of active or inactive are those of the source. No rule for the calls is given here.

Test: blockers of an Epstein-Barr virus protein-peptide interaction – biochemical, fluorescence polarization, dose response (AID 1419)
Settings: cell-free protein-peptide binding, 2 h; for fold change: measured here: P channel fold over control, at 54 µM

Compound: Cc1ccc(-c2noc(CCC(=O)N3CCCC3)n2)cc1
- IC50: > 54 µM (inactive)
- fold change: 1.01

Compound: Brc1ccc(C2=CC(c3ccco3)n3ncnc3N2)cc1 (configuration not stated)
- IC50: 1.09 µM
- fold change: 6.05

Compound: CN1Cc2c(c(C#N)c(N)n(C)c2=S)CC1(C)C
- IC50: > 54 µM (inactive)
- fold change: 1.89

Compound: N#C/C(=C\C1=C(N2CCOCC2)C(=C\c2ccccc2)/CC1)C(=O)Nc1ccccc1F
- IC50: 1.23 µM
- fold change: 2.94

Compound: CCCCCn1nc(-c2ccccc2)c2nc3ccccc3nc21
- IC50: 2.92 µM
- fold change: 33.5

Compound: Nc1cc2nc3ccccc3nc2cc1N
- IC50: < 0.42 µM
- fold change: 24.2

Compound: CCOC(=O)Cn1c(=O)c(-c2cc(Br)ccc2N)nc2ccccc21
- IC50: > 54 µM (inactive)
- fold change: 6.44

Compound: CCN(CC)C(=O)CSc1nnc2nnc3cc(OC)ccc3n12
- IC50: < 0.42 µM
- fold change: 7.06

Compound: COC(=O)C(Nc1nccs1)(OC)C(F)(F)F (configuration not stated)
- IC50: 13.8 µM
- fold change: 2.09

Compound: COc1ccc2nc(N3CCCCC3)c(C#N)cc2c1
- IC50: 4.61 µM
- fold change: 3.52

Compound: Nc1cccc(C(=O)OCC(=O)Nc2cccc3c2C(=O)c2ccccc2C3=O)c1
- IC50: 1.81 µM
- fold change: 2.03

Compound: CCCCNC(=O)CN1C(=O)c2cccc(N)c2C1=O
- IC50: 2.71 µM
- fold change: 2.44

Compound: CCc1cccc2cc3c(N)c(C(=O)Nc4ccc(S(=O)(=O)N5CCCC5)cc4)sc3nc12
- IC50: 1.63 µM
- fold change: 8.07

Compound: CCCNC(=O)Cn1c(=O)/c(=C\c2ccc(-c3cccc([N+](=O)[O-])c3)o2)s/c1=C\C(=O)C(C)(C)C
- IC50: 1.02 µM
- fold change: 8.62

Compound: CCOC(=O)/C(C#N)=C/c1cc2ccccc2nc1N1CCCCC1
- IC50: 27.1 µM
- fold change: 2.2

Compound: CC(C)NC(=O)c1sc2nc(-c3cccs3)cc(-c3cccs3)c2c1N
- IC50: 2.1 µM
- fold change: 15.4

Compound: COc1ccc(-n2c(N)c(C#N)c3ccc([N+](=O)[O-])cc3c2=O)cc1
- IC50: > 54 µM (inactive)
- fold change: 1.45

Compound: CN(C)c1ccc(/C=C/C(=O)c2cccc(Br)c2)cc1
- IC50: 8.66 µM
- fold change: 11.4

Compound: O=C1Nc2ccccc2/C1=C/c1cnc(-c2ccccc2)[nH]1
- IC50: 4.23 µM
- fold change: 14.6

Compound: COC(=O)c1cc(N2CCN(C)CC2)nc2ccccc12
- IC50: 32.8 µM (inactive)
- fold change: 1.52

Compound: CN(C)c1ccc(/C=C/C(=O)c2cc(Cl)ccc2O)cc1
- IC50: 15.9 µM
- fold change: 1.94

Compound: CCSc1cc(N2CCCC2)nc(-c2ccccc2Cl)n1
- IC50: 45.7 µM (inactive)
- fold change: 1.05

Compound: CN1C=CC2=C(C#N)C(N)C(C#N)(C#N)C(c3ccccc3)C2C1 (configuration not stated)
- IC50: 4.53 µM
- fold change: 3.69

Compound: O=c1ccc2[n+]([O-])c3ccc(O)cc3oc-2c1
- IC50: 1.34 µM
- fold change: 5.06

Compound: CCOC(=O)[C@@]1(C#N)C(c2ccc(Cl)c(Cl)c2)[C@H](C(N)=O)N2C=C(C(C)=O)C=C[C@H]21 (some centres not stated)
- IC50: 1.41 µM
- fold change: 9.48

Compound: CSc1nc(N(C)CCO)c2sc3nc(-c4ccco4)c4c(c3c2n1)CCC4
- IC50: > 54 µM (inactive)
- fold change: 1.04

Compound: CC(C)CSC1=NSC2=NC(=O)/C(=C\c3coc4ccccc4c3=O)C(=N)N12
- IC50: > 54 µM (inactive)
- fold change: 33

Compound: Cn1nc(-c2ccc(Cl)cc2)nc2c(=O)n(C)c(=O)nc1-2
- IC50: 7.16 µM
- fold change: 3.19

Compound: O=C1NC(=O)N(c2ccc(F)cc2)C(=O)/C1=C/c1ccc2c(c1)CCCN2Cc1ccccc1
- IC50: < 0.42 µM
- fold change: 38

Compound: Cc1cc(/C=C2\C(=O)NC(=O)N(c3cccc(Br)c3)C2=O)c(C)n1C
- IC50: 7.34 µM
- fold change: 9.43

Compound: O=C(Nc1cccc(S(=O)(=O)NC2=NCCC2)c1)c1cc(-c2ccco2)nc2ccccc12
- IC50: 2.74 µM
- fold change: 1.11

Compound: Cc1ccn(C(=O)c2ccc(NC(=O)C3CCCCC3)cc2)n1
- IC50: > 54 µM (inactive)
- fold change: 0.987

Compound: N#Cc1c(N)sc(=S)c2c1CCCC2
- IC50: > 54 µM (inactive)
- fold change: 1.09

Compound: O=c1nc2s/c(=C\c3ccc(-c4ccccc4[N+](=O)[O-])o3)c(=O)n2nc1-c1ccccc1
- IC50: < 0.42 µM
- fold change: 9.05

Compound: COc1ccc(Cc2nnc(NC(=O)Cc3cccs3)s2)cc1OC
- IC50: > 54 µM (inactive)
- fold change: 1.15

Compound: O=C1c2cccc3c(O)ccc(c23)C(=O)N1Cc1ccco1
- IC50: < 0.42 µM
- fold change: 134

Compound: Cc1ccc(S(=O)(=O)c2c(N)n(Cc3ccco3)c3nc4ccccc4nc23)cc1
- IC50: > 54 µM (inactive)
- fold change: 1.41

Compound: Cc1ccc(/C=C2\Sc3ccccc3C2=O)s1
- IC50: > 54 µM (inactive)
- fold change: 1.61

Compound: Cc1c2ccccc2nc2c(F)c(NCCO)c(F)c(F)c12
- IC50: < 0.42 µM
- fold change: 40.1

Compound: COc1ccc(-c2nc(CS(=O)CC(=O)NCc3cccnc3)c(C)o2)cc1 (configuration not stated)
- IC50: > 54 µM (inactive)
- fold change: 1.01

Compound: Cc1ccc(S(=O)(=O)C(C#N)c2nc3ccccc3nc2N2CCCC2)cc1 (configuration not stated)
- IC50: > 54 µM (inactive)
- fold change: 1.67

Compound: Cc1ccsc1C1C=C(c2cccc(Br)c2)Nc2ncnn21 (configuration not stated)
- IC50: 1.75 µM
- fold change: 3.13

Compound: CN1C(=O)C(=Cc2ccc(N3CCCCCC3)cc2)C(=O)N(C)C1=O
- IC50: 6.16 µM
- fold change: 11.1

Compound: COC(=O)[C@@]1(C#N)[C@@H]2C=CC(C(C)=O)=CN2[C@@H](C(N)=O)[C@@H]1c1ccc(F)cc1
- IC50: 1.05 µM
- fold change: 10.2

Compound: NS(=O)(=O)c1ccc(NC(=O)c2ccc(-c3ccccc3)cc2)cc1
- IC50: 25.1 µM
- fold change: 1.08

Compound: CCCn1nc(-c2ccccc2)c2nc3ccccc3nc21
- IC50: 2.37 µM
- fold change: 32

Compound: Cc1ccc(S(=O)(=O)c2cc3c(=O)n4ccccc4nc3n(Cc3ccco3)c2=N)cc1
- IC50: > 54 µM (inactive)
- fold change: 1.74

Compound: Cc1ccc([N+](=O)[O-])cc1-c1ccc(/C=C(\C#N)c2[nH]nc(N)c2C#N)o1
- IC50: > 54 µM (inactive)
- fold change: 0.727

Compound: O=c1[nH]c2ccc(N=Cc3c(O)ccc4cc(Br)ccc34)cc2[nH]1
- IC50: 0.97 µM
- fold change: 7.85

Compound: CC1CC=C2C(C#N)=C(N)C(C#N)(C#N)C(c3cccs3)C2C1 (configuration not stated)
- IC50: 12.8 µM
- fold change: 2.49

Compound: Cc1c(N2C(=O)c3ccc4c5c(ccc(c35)C2=O)CC4)c(=O)n(-c2ccccc2)n1C
- IC50: > 54 µM (inactive)
- fold change: 1.19

Compound: COc1ncnc2c1N=C1CC(C)(C)CC(N)=C1S2
- IC50: 2.31 µM
- fold change: 6.34

Compound: Fc1ccc(/C=N/NC2=Nc3cccc4cccc2c34)cc1
- IC50: 7.4 µM
- fold change: 3.32

Compound: c1ccc(-c2[nH]c(-c3ccccc3)[n+](CC3CO3)c2-c2ccccc2)cc1 (configuration not stated)
- IC50: > 54 µM (inactive)
- fold change: 0.99

Compound: CCn1c(SCc2ccc(C(=O)Nc3nccs3)cc2)nnc1-c1ccc(N)cc1
- IC50: > 54 µM (inactive)
- fold change: 0.973

Compound: CCOc1ccc2nc(N3CCCN(C(=O)Nc4ccccc4C)CC3)c(C#N)cc2c1
- IC50: 8.65 µM
- fold change: 8.56

Compound: NC(=O)c1ccc(N=Nc2c(O)c3ccccc3[nH]c2=O)cc1
- IC50: 13.3 µM
- fold change: 2.71

Compound: CC(=O)Nc1ccc(Nc2c3c4c(cccc4n(C)c2=O)C(=O)c2ccccc2-3)cc1
- IC50: < 0.42 µM
- fold change: 9.61

Compound: O=C1C2CC=C(Cl)CC2C(=O)N1CCCCCCN1C(=O)C2CC=C(Cl)CC2C1=O (configuration not stated)
- IC50: 6.72 µM
- fold change: 1.89

Compound: O=C(N/N=C/c1ccc(F)cc1)c1cc(-c2ccco2)nc2ccccc12
- IC50: 3.56 µM
- fold change: 0.96

Compound: Cc1nn(-c2ccccc2)c2c1C(c1ccc(O)c(O)c1)N1C(=N2)C(Nc2ccccc2)=Nc2ccccc21 (configuration not stated)
- IC50: 6.05 µM
- fold change: 3.94

Compound: Cc1cccc(N2C(=O)NC(=O)/C(=C/c3cc4c(cc3[N+](=O)[O-])OCO4)C2=O)c1
- IC50: 2.62 µM
- fold change: 3.71

Compound: CCOC(=O)/C(C#N)=C/c1ccc(N2CCN(Cc3ccccc3)CC2)cc1
- IC50: 40.3 µM (inactive)
- fold change: 9.09

Compound: COc1ccc2nc(-n3c(O)c(C4=c5ccccc5=NC4=O)[nH]c3=S)sc2c1
- IC50: 3.48 µM
- fold change: 0.923

Compound: Cc1nn(-c2ccccc2)c(N2CCCC2)c1/C=C1\N=C(c2ccc(F)cc2)OC1=O
- IC50: 7.44 µM
- fold change: 5.64

Compound: COc1ccc(N=Nc2nc3ccc(Br)cc3n2C)cc1
- IC50: > 54 µM (inactive)
- fold change: 1.28

Compound: CCCc1cc(=O)n(-c2nc3ccccc3s2)[nH]1
- IC50: > 54 µM (inactive)
- fold change: 0.94

Compound: O=C(C1=NN(c2ccccc2)C2C(=O)N(c3ccc(Cl)cc3)C(=O)C12)c1ccccc1 (configuration not stated)
- IC50: > 54 µM (inactive)
- fold change: 5.95

Compound: CCN(CC)c1ccc2cc(-c3nc(-c4ccc(OC)cc4)cs3)c(=O)oc2c1
- IC50: < 0.42 µM
- fold change: 58

Compound: CCCCCCOC(=O)C(C#N)c1nc2ccccc2nc1N1CCOCC1 (configuration not stated)
- IC50: 14.6 µM
- fold change: 8.17

Compound: Cc1ccc(N=C2NC(=O)/C(=C/c3cn(C)c4ccccc34)S2)cc1C
- IC50: 4.47 µM
- fold change: 7.74

Compound: Cc1ccc(-c2cn3nc(-c4ccccc4)c(-c4ccccc4)nc3n2)cc1
- IC50: 1.31 µM
- fold change: 37.6

Compound: O=[n+]1c2c(n([O-])c3cc(F)c(N4CCCC4)cc31)CCCC2
- IC50: < 0.42 µM
- fold change: 11.6

Compound: Cc1nc2nc(-c3cccs3)cn2nc1C
- IC50: 1.87 µM
- fold change: 6.46

Compound: CC(C)(O)[C@H]1O[C@H]2CC[C@@]3(C)[C@@](O)(CC[C@H]4Cc5c([nH]c6ccccc56)[C@@]43C)C2=CC1=O
- IC50: 2.03 µM
- fold change: 3.36

Compound: CC(=O)N1CCCc2cc(S(=O)(=O)N(CC(C)C)CC(C)C)ccc21
- IC50: > 54 µM (inactive)
- fold change: 0.967

Compound: Cc1cc(/C=C2\SC(=S)N(Cc3ccco3)C2=O)c(C)n1-c1ccccc1
- IC50: 7.24 µM
- fold change: 4.81

Compound: N#CC1=C(N)OC2=C(CC/C2=C\c2ccc(F)cc2)C1c1ccc(F)cc1 (configuration not stated)
- IC50: 20 µM
- fold change: 3.48

Compound: CCc1ccc[n+](-c2[nH]c(=O)sc2/C=N/NC([S-])=Nc2ccccc2)c1
- IC50: 22.1 µM
- fold change: 2.13

Compound: C=CCn1c(O)c(N=NC(=O)CNC(=O)/C=C/c2ccco2)c2ccccc21
- IC50: > 54 µM (inactive)
- fold change: 0.747

Compound: COC(=O)c1cc2n3ccccc3c(C)c(-c3ccccc3)c-2c1C(=O)OC
- IC50: 2.69 µM
- fold change: 4.46
